Assay results from US12521377B2, “Uses of (+)-B-dihydrotetrabenazine in methods of treating movement disorder” (ADEPTIO PHARMACEUTICALS LIMITED, priority 2017, dated 2026).
Entries after “also recorded” stand apart in the source; their conditions may differ. Values belong to the compound of their own block, whether it stands above or below them.

What was measured:
[1] = Pharmacokinetic study, single-dose oral administration of tetrabenazine 25 mg to healthy adult male volunteers: plasma levels of tetrabenazine and DHTBZ isomers; format: in vivo, human; conditions: for Kel: N=08, unit not given; for status as metabolite of tetrabenazine in humans: single and multiple dose tetrabenazine 25 mg, Tables 1 and 2
Method: (§1) A pharmacokinetic study was carried out in healthy adult male volunteers under fasting conditions at a dose of single and multiple oral administration of 25 mg tablets once a day to ascertain the plasma levels of +/−α and +/−β dihydro-tetrabenazine.
Table 1 summarises the pharmacokinetic data obtained following single-dose oral administration of tetrabenazine at a dose level of 25 mg (fasting, N=08).

[2] = biological target: Chromaffin Granule Monoamine Transporter (Bos taurus, UniProt Q27963); conditions: cited from earlier work
Chain of Chromaffin Granule Monoamine Transporter (Q27963 whole entry): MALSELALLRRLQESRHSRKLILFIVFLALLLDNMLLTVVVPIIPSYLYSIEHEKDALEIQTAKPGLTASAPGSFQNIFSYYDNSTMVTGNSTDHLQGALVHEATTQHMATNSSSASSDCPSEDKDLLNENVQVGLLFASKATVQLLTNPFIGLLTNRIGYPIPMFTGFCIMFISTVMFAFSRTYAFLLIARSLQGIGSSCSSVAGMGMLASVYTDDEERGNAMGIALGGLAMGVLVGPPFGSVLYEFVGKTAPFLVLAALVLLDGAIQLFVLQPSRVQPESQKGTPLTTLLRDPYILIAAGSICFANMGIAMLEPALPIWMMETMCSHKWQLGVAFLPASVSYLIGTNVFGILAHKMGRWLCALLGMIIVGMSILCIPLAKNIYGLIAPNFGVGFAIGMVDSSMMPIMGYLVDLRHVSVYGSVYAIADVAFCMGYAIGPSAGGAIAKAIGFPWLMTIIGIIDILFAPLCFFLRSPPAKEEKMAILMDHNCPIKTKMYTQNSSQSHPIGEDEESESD

male CD rats = experiment: Amphetamine induced locomotor activity and stereotypies in the open field arena; format: in vivo, rat; conditions: amphetamine at t=30 min; for normalised total distance travelled, compared to vehicle-amphetamine group / normalised total stereotypic behaviour, compared to vehicle-amphetamine group: listed as (+)-β-DHTBZ
Method: Resulting locomotor activity was evaluated in 3 min bins and as a total over the testing period. […] Resulting stereotypic activity was evaluated in 3 min bins and as a total over the testing period.

[3] = Pharmacokinetic study, multiple-dose oral administration of tetrabenazine 25 mg once a day to healthy adult male volunteers: plasma levels; format: in vivo; conditions: multiple-dose oral tetrabenazine 25 mg once a day, fasting, N=07, human plasma
Method: as §1
Table 2 summarises the pharmacokinetic data obtained following multiple-dose oral administration of tetrabenazine at a dose level of 25 mg (fasting, N=07).

[4] = rat brain, stereochemistry not disclosed; cited from earlier work
[5] = single-dose oral tetrabenazine 25 mg, fasting
[6] = single-dose oral tetrabenazine 25 mg, fasting, N=08, human plasma

Compound: COc1cc2c(cc1OC)[C@H]1C[C@@H](O)[C@H](CC(C)C)CN1CC2 [(+)-α-dihydrotetrabenazine]
more active than the (+)-β-isomer ([2]; earlier findings, as worded): 3- to 4 times | status as metabolite of tetrabenazine in humans [1]: minor metabolites | Kel [1, 5]: 0.17

Compound: COc1cc2c(cc1OC)C1CC(O)C(CC(C)C)CN1CC2 (stereo not shown) [dihydrotetrabenazine, 2-hydroxy-3-(2-methylpropyl)-1,3,4,6,7,11b-hexahydro-9,10-dimethoxy-benzo(a)quinolizine]
crossing of the blood-brain barrier [4]: able to cross the blood-brain barrier

Compound: α-dihydrotetrabenazine
higher affinity than the β-isomer ([2]; racemic α- versus racemic β-dihydrotetrabenazine, in vitro): 3- to 4 fold

Now from value to compound, other results behind:

Kel [1, 5]: 0.19
Compound: COc1cc2c(cc1OC)C1CC(=O)C(CC(C)C)CN1CC2 (racemic) [Tetrabenazine, 1,3,4,6,7,11b-hexahydro-9,10-dimethoxy-3-(2-methylpropyl)-2H-benzo(a)quinolizin-2-one]

Kel [1, 5]: 0.13
Compound: COc1cc2c(cc1OC)[C@H]1C[C@H](O)[C@H](CC(C)C)CN1CC2 [(+)-β-dihydrotetrabenazine, (S,R,R)-3-isobutyl-9,10-dimethyloxy-1,3,4,5,7,11b-hexahydro-2H-pyrido[2,1-a]isoquinolin-2-ol]
status as metabolite of tetrabenazine in humans [1]: major metabolites; also recorded: main metabolites | normalised total stereotypic behaviour, compared to vehicle-vehicle group (male CD rats; 2.5 mg/kg at t=0 min): significantly different | normalised total distance travelled, compared to vehicle-amphetamine group (male CD rats; 2.5 mg/kg at t=0 min): lower locomotor activity | normalised total stereotypic behaviour, compared to vehicle-amphetamine group (male CD rats; 2.5 mg/kg at t=0 min): significantly different; also recorded: reduced stereotypic behaviour | normalised total stereotypic behaviour, compared to vehicle-vehicle group (male CD rats; 5 mg/kg at t=0 min): significantly different | normalised total distance travelled, compared to vehicle-amphetamine group (male CD rats; 5 mg/kg at t=0 min): lower locomotor activity | normalised total stereotypic behaviour, compared to vehicle-amphetamine group (male CD rats; 5 mg/kg at t=0 min): significantly different; also recorded: reduced stereotypic behaviour

Kel [1, 5]: 0.10
Compound: COc1cc2c(cc1OC)[C@@H]1C[C@H](O)[C@@H](CC(C)C)CN1CC2 [(−)-α-dihydrotetrabenazine]
status as metabolite of tetrabenazine in humans [1]: major metabolites; also recorded: main metabolites

status as metabolite of tetrabenazine in humans [1]: minor metabolites | Cmax ([1]; single dose study, tetrabenazine administered to adult male humans): 5.28 ng/mL | area under the curve (AUC) ([1]; single dose study, tetrabenazine administered to adult male humans (unit not given)): 16.28 | AUC(0-inf.) [1, 6]: 18.77 ng·h/mL | AUC(0-t) [1, 6]: 16.28 ng·h/mL | Cmax [1, 6]: 5.28 ng/mL | Extrapolated AUC [1, 6]: 17.66% | Half-life (Mean) [1, 6]: 12.98 h | Tmax Mean [1, 6]: 1.03 h | Kel [1, 5]: 0.45 | AUC(0-t) [3]: 25.17 ng·h/mL | Cmaxss [3]: 7.78 ng/mL | Cminss [3]: 0.16 ng/mL | Ctss [3]: 0.57 ng/mL | Tmaxss Mean [3]: 97.11 h
Compound: COc1cc2c(cc1OC)[C@@H]1C[C@@H](O)[C@@H](CC(C)C)CN1CC2 [(−)-β-dihydrotetrabenazine]
